Reference: patent publication US12110294B2, “CD73 compounds” (Gilead Sciences, Inc., priority 2020, dated 2024)
Like-named read-outs stand apart in the source and are kept apart here.

How the values were obtained:
CD73 [1] = target: T1, CD73 (Homo sapiens, UniProt P21589); test: CD73 Biochemical IC50 Assay; conditions: final AMP 15 uM, final CD73 0.3 nM, 25 mM Tris pH 7.4, 5 mM MgCl2, no phosphate
T1 construct: purchased R&D system
T1 sequence (P21589 27-549): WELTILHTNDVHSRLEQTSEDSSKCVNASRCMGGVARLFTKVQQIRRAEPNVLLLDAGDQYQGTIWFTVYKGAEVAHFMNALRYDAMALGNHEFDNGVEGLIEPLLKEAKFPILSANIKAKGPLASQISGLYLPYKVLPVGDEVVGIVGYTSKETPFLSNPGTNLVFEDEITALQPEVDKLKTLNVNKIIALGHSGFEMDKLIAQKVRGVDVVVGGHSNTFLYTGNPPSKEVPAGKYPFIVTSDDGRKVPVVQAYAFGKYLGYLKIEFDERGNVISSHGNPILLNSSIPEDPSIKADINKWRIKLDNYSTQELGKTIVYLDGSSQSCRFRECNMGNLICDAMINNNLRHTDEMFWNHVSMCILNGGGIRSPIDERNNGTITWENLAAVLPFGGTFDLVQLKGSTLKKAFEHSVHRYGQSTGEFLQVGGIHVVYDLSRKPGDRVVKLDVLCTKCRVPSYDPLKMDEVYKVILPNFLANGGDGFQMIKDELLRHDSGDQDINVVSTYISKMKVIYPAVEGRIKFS
Procedure: CD73 Biochemical IC50 Assay
Compound serial dilutions were pre-spotted into Thermo Nunc assay plate. 50 μL CD73 enzyme buffer (CD73 purchased from R&D system=0.6 nM, 25 mM Tris, pH 7.4, 5 mM MgCl2) was added into the assay plate and incubated for 15 mins. […] The samples were run using Rapid fire.

[2] = target: T2, CD73 activity in MDA-MB-231-GFP cells (Homo sapiens, UniProt P21589); test: MDA-MB-231 Cell Based CD73 Activity Assay; conditions: 10000 cells per well, RPMI medium with 10% human plasma, overnight compound treatment, AMP 200 μM
T2 construct: endogenous in cells; host or cells: MDA-MB-231-GFP cells
T2 sequence (P21589 27-549): T1 sequence (P21589 27-549)
Procedure: MDA-MB-231 Cell Based CD73 Activity Assay
MDA-MB-231-GFP cells were seeded in 384-well plates (Greiner 781946) at a density of 10000 cells per well in 50 μL of RPMI medium with 10% HP (human plasma). Cells were plated into assay plate with compounds pre-spotted, for an overnight compound treatment. 50 μL of 400 μM AMP (final concentration 200 μM) using a Bio-tek dispenser. Plates were incubated for 100 mins. […] The samples were run using Rapid fire.

CD73 [3] = target: T1, CD73; type: biochemical; conditions: 1 mM NaH2PO4 in enzyme buffer, final AMP 15 uM, final CD73 0.3 nM
[4] = target: T2, CD73 activity in MDA-MB-231-GFP cells; test: MDA-MB-231 Cell Based CD73 Activity Assay (DMEM); conditions: 3000 cells per well, DMEM medium with 10% human plasma, overnight compound treatment, AMP 200 uM

IC50 (CD73 [1])	EC50 [2]	IC50 (CD73 [3])	EC50 [4]	Structure (SMILES)
16.8 nM	3.59 nM			O=c1[nH]cc(-c2cc([C@@H]3C[C@H]3c3ccccc3F)c3nccn3n2)c(=O)[nH]1 (racemic) [Example 28, 5-(8-((1S,2S)-2-(2-fluorophenyl)cyclopropyl)imidazo[1,2-b]pyridazin-6-yl)pyrimidine-2,4(1H,3H)-dione and 5-(8-((1R,2R)-2-(2-fluorophenyl)cyclopropyl)imidazo[1,2-b]pyridazin-6-yl)pyrimidine-2,4(1H,3H)-dione]
16.3 nM	7.08 nM			O=c1[nH]cc(-c2cc([C@H]3C[C@@H]3c3cccc(F)c3)c3nccn3n2)c(=O)[nH]1 (racemic) [Example 29, 5-(8-((1S,2S)-2-(3-fluorophenyl)cyclopropyl)imidazo[1,2-b]pyridazin-6-yl)pyrimidine-2,4(1H,3H)-dione and 5-(8-((1R,2R)-2-(3-fluorophenyl)cyclopropyl)imidazo[1,2-b]pyridazin-6-yl)pyrimidine-2,4(1H,3H)-dione]
18.6 nM	6.84 nM			O=c1[nH]cc(-c2cc([C@@H]3C[C@H]3c3cccc(F)c3F)c3nccn3n2)c(=O)[nH]1 (racemic) [Example 32, 5-(8-((1S,2S)-2-(2,3-difluorophenyl)cyclopropyl)imidazo[1,2-b]pyridazin-6-yl)pyrimidine-2,4(1H,3H)-dione and 5-(8-((1R,2R)-2-(2,3-difluorophenyl)cyclopropyl)imidazo[1,2-b]pyridazin-6-yl)pyrimidine-2,4(1H,3H)-dione]
18.2 nM	11.3 nM			O=c1[nH]cc(-c2cc([C@@H]3C[C@H]3c3ccc(F)c(F)c3F)c3nccn3n2)c(=O)[nH]1 (racemic) [Example 34, 5-(8-((1S,2S)-2-(2,3,4-trifluorophenyl)cyclopropyl)imidazo[1,2-b]pyridazin-6-yl)pyrimidine-2,4(1H,3H)-dione and 5-(8-((1R,2R)-2-(2,3,4-trifluorophenyl)cyclopropyl)imidazo[1,2-b]pyridazin-6-yl)pyrimidine-2,4(1H,3H)-dione]
14.7 nM		1.5 nM		N#Cc1cc([C@@H]2C[C@H]2c2cc(-c3c[nH]c(=O)[nH]c3=O)nn3ccnc23)ccc1F (racemic) [Example 64, 5-((2S,2S)-2-(6-(2,4-dioxo-1,2,3,4-tetrahydropyrimidin-5-yl)imidazo[1,2-b]pyridazin-8-yl)cyclopropyl)-2-fluorobenzonitrile and 54(1R,2R)-2-(6-(2,4-dioxo-1,2,3,4-tetrahydropyrimidin-5-yl)imidazo[1,2-b]pyridazin-8-yl)cyclopropyl)-2-fluorobenzonitrile]
98.4 nM				O=c1[nH]cc(-c2cc([C@@H]3C[C@H]3c3ccc(C(F)(F)F)c(F)c3)c3nccn3n2)c(=O)[nH]1 (racemic) [Example 100, 5-(8-((2S,2S)-2-(3-fluoro-4-(trifluoromethyl)phenyl)cyclopropyl)imidazo[1,2-b]pyridazin-6-yl)pyrimidine-2,4(1H,3H)-dione and 5-(8-((1R,2R)-2-(3-fluoro-4-(trifluoromethyl)phenyl)cyclopropyl)imidazo[1,2-b]pyridazin-6-yl)pyrimidine-2,4(1H,3H)-dione]
15.9 nM				COc1ccccc1[C@@H]1C[C@H]1c1cc(-c2c[nH]c(=O)[nH]c2=O)nn2ccnc12 (racemic) [Example 101, 5-(8-((2S,2S)-2-(2-methoxyphenyl)cyclopropyl)imidazo[1,2-b]pyridazin-6-yl)pyrimidine-2,4(1H,3H)-dione and 5-(8-((1R,2R)-2-(2-methoxyphenyl)cyclopropyl)imidazo[1,2-b]pyridazin-6-yl)pyrimidine-2,4(1H,3H)-dione]
		0.71 nM	33.5 nM	O=c1[nH]cc(-c2cc([C@H]3C[C@@H]3c3ccc(F)cc3F)n3ncnc3n2)c(=O)[nH]1 [Example 416, 5-(7-((2S,2S)-2-(2,4-difluorophenyl)cyclopropyl)-[1,2,4]triazolo[1,5-a]pyrimidin-5-yl)pyrimidine-2,4(1H,3H)-dione]
		0.87 nM	12.6 nM	O=c1[nH]cc(-c2cc([C@H]3C[C@@H]3c3ccc(C(F)(F)F)cc3)n3ncnc3n2)c(=O)[nH]1 [Example 417, 5-(7-((2S,2S)-2-(4-(trifluoromethyl)phenyl)cyclopropyl)-[1,2,4]triazolo[1,5-a]pyrimidin-5-yl)pyrimidine-2,4(1H,3H)-dione]
		0.58 nM	0.71 nM	O=c1[nH]cc(-c2cc([C@H]3C[C@@H]3c3cc4c(cnn4CC(F)(F)F)cc3F)c3ncc(F)n3n2)c(=O)[nH]1 [Example 613, 5-(3-fluoro-8-((1S,2S)-2-(5-fluoro-1-(2,2,2-trifluoroethyl)-1H-indazol-6-yl)cyclopropyl)imidazo[1,2-b]pyridazin-6-yl)pyrimidine-2,4(1H,3H)-dione]

More lines, now with the values behind:

Structure (SMILES)	IC50 (CD73 [1])	EC50 [2]	IC50 (CD73 [3])	EC50 [4]
O=c1[nH]cc(-c2cc([C@@H]3CC34CCC4)c3nccn3n2)c(=O)[nH]1 (racemic) [Example 5, (S)-5-(8-(spiro[2.3]hexan-1-yl)imidazo[1,2-b]pyridazin-6-yl)pyrimidine-2,4(1H,3H)-dione and (R)-5-(8-(spiro[2.3]hexan-1-yl)imidazo[1,2-b]pyridazin-6-yl)pyrimidine-2,4(1H,3H)-dione]	≥ 2500 nM			
O=c1[nH]cc(-c2cc([C@@H]3C[C@H]3c3ccc(OC(F)(F)F)cc3)c3nccn3n2)c(=O)[nH]1 (racemic) [Example 48, 5-(8-((2S,2S)-2-(4-(trifluoromethoxy)phenyl)cyclopropyl)imidazo[1,2-b]pyridazin-6-yl)pyrimidine-2,4(1H,3H)-dione and 5-(8-((1R,2R)-2-(4-(trifluoromethoxy)phenyl)cyclopropyl)imidazo[1,2-b]pyridazin-6-yl)pyrimidine-2,4(1H,3H)-dione]	52.5 nM		2.73 nM	
O=c1[nH]cc(-c2cc([C@@H]3C[C@H]3C3CC(F)(F)C3)c3nccn3n2)c(=O)[nH]1 (racemic) [Example 106, 5-(8-((1S,2R)-2-(3,3-difluorocyclobutyl)cyclopropyl)imidazo[1,2-b]pyridazin-6-yl)pyrimidine-2,4(1H,3H)-dione and 5-(8-((1R,2S)-2-(3,3-difluorocyclobutyl)cyclopropyl)imidazo[1,2-b]pyridazin-6-yl)pyrimidine-2,4(1H,3H)-dione]	105 nM			
O=c1[nH]cc(-c2cc([C@@H]3C[C@H]3C(F)(F)F)c3nccn3n2)c(=O)[nH]1 (racemic) [Example 107, 5-(8-((2S,2S)-2-(trifluoromethyl)cyclopropyl)imidazo[1,2-b]pyridazin-6-yl)pyrimidine-2,4(1H,3H)-dione and 5-(8-((1R,2R)-2-(trifluoromethyl)cyclopropyl)imidazo[1,2-b]pyridazin-6-yl)pyrimidine-2,4(1H,3H)-dione]	46.8 nM			
O=c1[nH]cc(-c2cc([C@@H]3C[C@@]3(F)c3ccccc3)c3nccn3n2)c(=O)[nH]1 (racemic) [Example 108, 5-(8-((1R,2R)-2-fluoro-2-phenylcyclopropyl)imidazo[1,2-b]pyridazin-6-yl)pyrimidine-2,4(1H,3H)-dione and 5-(8-((1S,2S)-2-fluoro-2-phenylcyclopropyl)imidazo[1,2-b]pyridazin-6-yl)pyrimidine-2,4(1H,3H)-dione]	35 nM			
O=c1[nH]cc(-c2cc(N3C[C@@H](F)[C@@H](F)C3)c3nccn3n2)c(=O)[nH]1 [Example 77, 5-[8-[(3S,4R)-3,4-difluoropyrrolidin-1-yl]imidazo[1,2-b]pyridazin-6-yl]-1H-pyrimidine-2,4-dione and 5-[8-[(3R,4S)-3,4-difluoropyrrolidin-1-yl]imidazo[1,2-b]pyridazin-6-yl]-1H-pyrimidine-2,4-dione]	22.6 nM		3.5 nM	
O=c1[nH]cc(-c2cc(N3C[C@@H]4C[C@H]3C(F)(F)C4)c3nccn3n2)c(=O)[nH]1 [Example 644, 5-(8-(6,6-difluoro-2-azabicyclo[2.2.1]heptan-2-yl)imidazo[1,2-b]pyridazin-6-yl)pyrimidine-2,4(1H,3H)-dione]			> 250 nM	1420 nM
